Columns and labels:
[1] = system: Lewis lung carcinoma cell line; assay: Evaluated for anticancer activity in survival tumor system tumor system Lewis lung (LL) carcinoma at a dose of 200 mg/kg; Number of Tested survived/number of control survived (2/10); assay type: functional, Mus musculus
[2] = system: MX1; assay: Evaluated for anticancer activity in tumor inhibition system MX-1 breast xenograph at a dose of 75 mg/kg; Number of Tested survived/number of control survived (4/6); assay type: functional, Homo sapiens
[3] = system: Lewis lung carcinoma cell line; assay: Evaluated for anticancer activity in survival tumor system Lewis lung (LL) carcinoma at dose 50 mg/kg; assay type: functional, Mus musculus
[4] = system: MX1; assay: Evaluated for anticancer activity in tumor inhibition system MX-1 breast xenograph at a dose of 300 mg/kg; Number of Tested survived/number of control survived (1/6); assay type: functional, Homo sapiens
[5] = system: B16; assay: Evaluated for anticancer activity in survival tumor system B16 melanocarcinoma at dose 100 mg/kg; assay type: functional, Mus musculus
[6] = system: P388; assay: Evaluated for anticancer activity in survival tumor system P388 lymphocytic leukemia at a dose of 50 mg/kg;Number of Tested survived/number of control survived (5/5); conditions: Mus musculus
[7] = system: B16; assay: Evaluated for anticancer activity in survival tumor system B16 melanocarcinoma at a dose of 12.5 mg/kg; Number of Tested survived/number of control survived (9/10); assay type: functional, Mus musculus
[8] = system: P388; assay: Evaluated for anticancer activity in survival tumor system P388 lymphocytic leukemia at a dose of 50 mg/kg, value was reported as weight difference; assay type: functional, Mus musculus
[9] = Evaluated for anticancer activity in tumor inhibition system CD8F1 mammary tumors at a dose of mg/kg;Number of Tested survived/number of control survived (10/10); assay type: functional, Mus musculus
[10] = system: L1210; assay: Evaluated for anticancer activity in survival tumor system L1210 lymphoid leukemia at a dose of 25 mg/kg, value was reported as weight difference; assay type: functional, Mus musculus
[11] = system: MX1; assay: Evaluated for anticancer activity in tumor inhibition system MX-1 breast xenograph at dose 75 mg/kg; assay type: functional, Homo sapiens
[12] = Evaluated for anticancer activity in tumor inhibition system colon 38 at a dose of 100 mg/kg, value was reported as weight difference; assay type: functional, Mus musculus
[13] = system: P388; assay: Evaluated for anticancer activity in survival tumor system P388 lymphocytic leukemia at a dose of 200 mg/kg; Number of Tested survived/number of control survived (0/6); assay type: functional, Mus musculus
[14] = Evaluated for anticancer activity in tumor inhibition system colon 38 tumors at a dose of 50 mg/kg; Number of Tested survived/number of control survived (10/10); assay type: functional, Mus musculus
[15] = Evaluated for anticancer activity in tumor inhibition system colon 38 tumors at a dose of 400 mg/kg; Number of Tested survived/number of control survived (10/10); assay type: functional, Mus musculus
[16] = system: B16; assay: Evaluated for anticancer activity in survival tumor system B16 melanocarcinoma at a dose of 200 mg/kg; Number of Tested survived/number of control survived (4/10); assay type: functional, Mus musculus
[17] = Evaluated for anticancer activity in tumor inhibition system colon 38 at a dose of 50 mg/kg, value was reported as weight difference; assay type: functional, Mus musculus
[18] = system: Lewis lung carcinoma cell line; assay: Evaluated for anticancer activity in survival tumor system Lewis lung (LL) carcinoma at a dose of 50 mg/kg, value was reported as weight difference; assay type: functional, Mus musculus
[19] = system: L1210; assay: Evaluated for anticancer activity in survival tumor system L1210 lymphoid leukemia at a dose of 6.25 mg/kg; Number of Tested survived/number of control survived (6/6); assay type: functional, Mus musculus
[20] = Evaluated for anticancer activity in tumor inhibition system colon 38 at a dose of 200 mg/kg, value was reported as weight difference; assay type: functional, Mus musculus
[21] = system: L1210; assay: Evaluated for anticancer activity in survival tumor system L1210 lymphoid leukemia at a dose of 3.125 mg/kg, value was reported as weight difference; assay type: functional, Mus musculus
[22] = system: MX1; assay: Evaluated for anticancer activity in tumor inhibition system MX-1 breast xenograph at dose 150 mg/kg; assay type: functional, Homo sapiens
[23] = system: B16; assay: Evaluated for anticancer activity in survival tumor system B16 melanocarcinoma at a dose of 25 mg/kg, value was reported as weight difference; assay type: functional, Mus musculus
[24] = system: L1210; assay: Evaluated for anticancer activity in survival tumor system L1210 lymphoid leukemia at dose 6.25 mg/kg; assay type: functional, Mus musculus
[25] = system: MX1; assay: Evaluated for anticancer activity in tumor inhibition system MX-1 breast xenograph at a dose of 75 mg/kg, value was reported as weight difference; assay type: functional, Homo sapiens
[26] = system: P388; assay: Evaluated for anticancer activity in survival tumor system P388 lymphocytic leukemia at dose 50 mg/kg; assay type: functional, Mus musculus
[27] = system: Lewis lung carcinoma cell line; assay: Evaluated for anticancer activity in survival tumor system Lewis lung (LL) carcinoma at a dose of 12.5 mg/kg; Number of Tested survived/number of control survived (10/10); assay type: functional, Mus musculus
[28] = system: B16; assay: Evaluated for anticancer activity in survival tumor system B16 melanocarcinoma at dose 25 mg/kg; assay type: functional, Mus musculus
[29] = system: Lewis lung carcinoma cell line; assay: Evaluated for anticancer activity in survival tumor system Lewis lung (LL) carcinoma at a dose of 25 mg/kg, value was reported as weight difference; assay type: functional, Mus musculus
[30] = system: L1210; assay: Evaluated for anticancer activity in survival tumor system L1210 lymphoid leukemia at a dose of 100 mg/kg; Number of Tested survived/number of control survived (6/6); assay type: functional, Mus musculus
[31] = system: P388; assay: Evaluated for anticancer activity in survival tumor system P388 lymphocytic leukemia at a dose of 12.5 mg/kg, value was reported as weight difference; assay type: functional, Mus musculus
[32] = system: L1210; assay: Evaluated for anticancer activity in survival tumor system L1210 lymphoid leukemia at a dose of 50 mg/kg; Number of Tested survived/number of control survived (6/6); assay type: functional, Mus musculus
[33] = system: P388; assay: Evaluated for anticancer activity in survival tumor system P388 lymphocytic leukemia at dose 25 mg/kg; assay type: functional, Mus musculus
[34] = Evaluated for anticancer activity in tumor inhibition system colon 38 tumor at dose 50 mg/kg; assay type: functional, Mus musculus
[35] = system: Lewis lung carcinoma cell line; assay: Evaluated for anticancer activity in survival tumor system Lewis lung (LL) carcinoma at a dose of 25 mg/kg; number of Tested survived/number of control survived; assay type: functional, Mus musculus
[36] = system: Lewis lung carcinoma cell line; assay: Evaluated for anticancer activity in survival tumor system tumor system Lewis lung (LL) carcinoma at a dose of 100 mg/kg; Number of Tested survived/number of control survived (10/10); assay type: functional, Mus musculus
[37] = Evaluated for anticancer activity in tumor inhibition system CD8F1 mammary tumor at dose 125 mg/kg; assay type: functional, Mus musculus
[38] = system: Lewis lung carcinoma cell line; assay: Evaluated for anticancer activity in survival tumor system Lewis lung (LL) carcinoma at a dose of 100 mg/kg, value was reported as weight difference; assay type: functional, Mus musculus
[39] = Evaluated for anticancer activity in tumor inhibition system colon 38 tumors at a dose of 100 mg/kg; Number of Tested survived/number of control survived (10/10); assay type: functional, Mus musculus
[40] = system: B16; assay: Evaluated for anticancer activity in survival tumor system B16 melanocarcinoma at dose 12.5 mg/kg; assay type: functional, Mus musculus
[41] = system: L1210; assay: Evaluated for anticancer activity in survival tumor system L1210 lymphoid leukemia at a dose of 12.5 mg/kg, value was reported as weight difference; assay type: functional, Mus musculus
[42] = system: B16; assay: Evaluated for anticancer activity in survival tumor system B16 melanocarcinoma at a dose of 6.25 mg/kg; Number of Tested survived/number of control survived (10/10); assay type: functional, Mus musculus
[43] = Evaluated for anticancer activity in tumor inhibition system colon 38 at a dose of 400 mg/kg, value was reported as weight difference; assay type: functional, Mus musculus

Which Survival [1] does the source give for `COc1cc2c[n+](C)c3c(c2cc1OC)Cc1cc2c(cc1-3)OCO2.[Cl-]` here?
Its Survival is 2.

What about the Survival [2] of the same compound?
Its Survival is 4.

And the T/C [3]?
The T/C was 119%.

What about the Survival [4] of the same compound?
Its Survival is 1.

And the T/C [5]?
Its T/C is 120%.

What about the Survival [6] of the same compound?
The Survival was 5.

What about the Survival [7] of the same compound?
Its Survival is 9.

What about the Weight change [8] of the same compound?
The Weight change was -5.

What about the Survival [9] of the same compound?
The Survival was 10.

What about the Weight change [10] of the same compound?
Its Weight change is -5.4.

What about the T/C [11] of the same compound?
Its T/C is 102%.

What about the Weight change [12] of the same compound?
The Weight change was -1.9.

What about the Survival [13] of the same compound?
Its Survival is 0.

What about the Survival [14] of the same compound?
The Survival was 10.

And the Survival [15]?
The Survival was 10.

What about the Survival [16] of the same compound?
The Survival was 4.

And the Weight change [17]?
Its Weight change is -0.8.

And the Weight change [18]?
Its Weight change is -2.6.

And the Survival [19]?
The Survival was 6.

And the Weight change [20]?
Its Weight change is -4.3.

What about the Weight change [21] of the same compound?
The Weight change was -1.9.

What about the T/C [22] of the same compound?
Its T/C is 35%.

What about the Weight change [23] of the same compound?
Its Weight change is -2.5.

And the T/C [24]?
Its T/C is 154%.

What about the Weight change [25] of the same compound?
Its Weight change is -4.5.

What about the T/C [26] of the same compound?
Its T/C is 149%.

And the Survival [27]?
Its Survival is 10.

And the T/C [28]?
The T/C was 139%.

What about the Weight change [29] of the same compound?
The Weight change was -2.4.

What about the Survival [30] of the same compound?
The Survival was 6.

And the Weight change [31]?
The Weight change was -1.4.

What about the Survival [32] of the same compound?
Its Survival is 6.

And the T/C [33]?
The T/C was 151%.

What about the T/C [34] of the same compound?
The T/C was 94%.

What about the Survival [35] of the same compound?
Its Survival is 10.

What about the Survival [36] of the same compound?
The Survival was 10.

And the T/C [37]?
Its T/C is 105%.

What about the Weight change [38] of the same compound?
The Weight change was -3.8.

And the Survival [39]?
The Survival was 10.

And the T/C [40]?
Its T/C is 131%.

And the Weight change [41]?
The Weight change was -2.6.

And the Survival [42]?
The Survival was 10.

And the Weight change [43]?
Its Weight change is -6.2.

Reference: ChEMBL document CHEMBL1122789, “Synthesis and biological activity of structural analogues of the anticancer benzophenanthridine alkaloid nitidine chloride” (1984)
